Source: EP1171107B1, “USE OF A PHARMACEUTICAL COMPOSITION IN THE MANUFACTURE OF A MEDICAMENT FOR THE TREATMENT OF PATHOLOGICAL CONDITIONS OF THE EYE CAUSED BY BACTERIA, VIRUSES, FUNGI, YEASTS AND PROTOZOA” (Dr. GERHARD MANN chem.-pharm. Fabrik GmbH, priority 1999, dated 2000)

Experiments:
Format in all cases: cell-based
E.coli [1] = test: Quantitative germ count (re-isolation, surface method) after inoculating the test preparation; conditions: Ausgangskeimzahl 2,7 x 10^5 KBE/ml
H.influenzae [2] = test: as above; conditions: Ausgangskeimzahl 2,8 x 10^5 KBE/ml
Outline: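 Surviving germs were counted by the surface method: an aliquot was spiral-plated on Kochblut-Agar and incubated at 33±2°C for max. 4 Tage, giving re-isolated counts in KBE/ml with a detection limit of 100 KBE/ml. Initial germ counts were also set by spiral-plater surface plating. The H. influenzae strain was pretested biochemically for identity and purity.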

S.aureus [3] = test: as above; conditions: Ausgangskeimzahl 2,6 x 10^5 KBE/ml
Outline: (§1)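 Test preparations were contaminated with ca. 10^5 CFU/ml of each strain, then sampled at 2, 6, 8, 24, 32, 48 and 72 h. Cells were centrifuged 10 min at 3000 rpm, washed in NaCl-peptone buffer, resuspended and spiral-plated on Caso agar at 33±2°C for max. 4 days. Detection limit was 100 CFU/ml.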

Sc. pneumoniae [4] = test: as above; conditions: Ausgangskeimzahl 3,7 x 10^5 KBE/ml
Outline: as §1

P.aeruginosa [5] = test: as above; conditions: Ausgangskeimzahl 2,7 x 10^5 KBE/ml
Outline: as §1

E.coli [6] = test: Qualitative examination: enrichment of the inoculated test preparation in broth
Outline: (§2)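 Growth/no growth after broth enrichment read out; negative enrichment taken as elimination of inoculum. Inoculum ca. 10^5 CFU/ml in 5 ml test substance, contact 2–72 h, then centrifugation wash in NaCl-peptone buffer, 2 ml into 20 ml Caso broth or Fildes medium, ≤4 d, 33±2°C.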

S.aureus [7] = test: as above
Outline: as §2

S.epidermidis = test: as above
Outline: as §2

Sc. pneumoniae [8] = test: as above
Outline: as §2

H.influenzae [9] = test: as above
Outline: as §2

P.aeruginosa [10] = test: as above
Outline: as §2

Benzalkoniumchlorid [Benzalkoniumchlorid 0,0025 Gew.-%]
Ergebnis der Reisolierung (in KBE/ml) (E.coli [1]; 2 h after inoculation): <100 KBE/ml
Ergebnis der Reisolierung (in KBE/ml) (E.coli [1]; 4 h after inoculation): <100 KBE/ml
Ergebnis der Reisolierung (in KBE/ml) (E.coli [1]; 6 h after inoculation): <100 KBE/ml
Ergebnis der Reisolierung (in KBE/ml) (E.coli [1]; 8 h after inoculation): <100 KBE/ml
Ergebnis der Reisolierung (in KBE/ml) (E.coli [1]; 24 h after inoculation): <100 KBE/ml
Ergebnis der Reisolierung (in KBE/ml) (E.coli [1]; 32 h after inoculation): <100 KBE/ml
Ergebnis der Reisolierung (in KBE/ml) (E.coli [1]; 48 h after inoculation): <100 KBE/ml
Ergebnis der Reisolierung (in KBE/ml) (E.coli [1]; 72 h after inoculation): <100 KBE/ml
Ergebnis der Reisolierung (in KBE/ml) (H.influenzae [2]; 2 h after inoculation): <100 KBE/ml
Ergebnis der Reisolierung (in KBE/ml) (H.influenzae [2]; 4 h after inoculation): <100 KBE/ml
Ergebnis der Reisolierung (in KBE/ml) (H.influenzae [2]; 6 h after inoculation): <100 KBE/ml
Ergebnis der Reisolierung (in KBE/ml) (H.influenzae [2]; 8 h after inoculation): <100 KBE/ml
Ergebnis der Reisolierung (in KBE/ml) (H.influenzae [2]; 24 h after inoculation): <100 KBE/ml
Ergebnis der Reisolierung (in KBE/ml) (H.influenzae [2]; 32 h after inoculation): <100 KBE/ml
Ergebnis der Reisolierung (in KBE/ml) (H.influenzae [2]; 48 h after inoculation): <100 KBE/ml
Ergebnis der Reisolierung (in KBE/ml) (H.influenzae [2]; 72 h after inoculation): <100 KBE/ml
Ergebnis der Reisolierung (in KBE/ml) (S.aureus [3]; 2 h after inoculation): <100 KBE/ml
Ergebnis der Reisolierung (in KBE/ml) (S.aureus [3]; 4 h after inoculation): <100 KBE/ml
Ergebnis der Reisolierung (in KBE/ml) (S.aureus [3]; 6 h after inoculation): <100 KBE/ml
Ergebnis der Reisolierung (in KBE/ml) (S.aureus [3]; 8 h after inoculation): <100 KBE/ml
Ergebnis der Reisolierung (in KBE/ml) (S.aureus [3]; 24 h after inoculation): <100 KBE/ml
Ergebnis der Reisolierung (in KBE/ml) (S.aureus [3]; 32 h after inoculation): <100 KBE/ml
Ergebnis der Reisolierung (in KBE/ml) (S.aureus [3]; 48 h after inoculation): <100 KBE/ml
Ergebnis der Reisolierung (in KBE/ml) (S.aureus [3]; 72 h after inoculation): <100 KBE/ml
Ergebnis der Reisolierung (in KBE/ml) (Sc. pneumoniae [4]; 2 h after inoculation): <100 KBE/ml
Ergebnis der Reisolierung (in KBE/ml) (Sc. pneumoniae [4]; 4 h after inoculation): <100 KBE/ml
Ergebnis der Reisolierung (in KBE/ml) (Sc. pneumoniae [4]; 6 h after inoculation): <100 KBE/ml
Ergebnis der Reisolierung (in KBE/ml) (Sc. pneumoniae [4]; 8 h after inoculation): <100 KBE/ml
Ergebnis der Reisolierung (in KBE/ml) (Sc. pneumoniae [4]; 24 h after inoculation): <100 KBE/ml
Ergebnis der Reisolierung (in KBE/ml) (Sc. pneumoniae [4]; 32 h after inoculation): <100 KBE/ml
Ergebnis der Reisolierung (in KBE/ml) (Sc. pneumoniae [4]; 48 h after inoculation): <100 KBE/ml
Ergebnis der Reisolierung (in KBE/ml) (Sc. pneumoniae [4]; 72 h after inoculation): <100 KBE/ml
Ergebnis der Reisolierung (in KBE/ml) (P.aeruginosa [5]; 2 h after inoculation): <100 KBE/ml
Ergebnis der Reisolierung (in KBE/ml) (P.aeruginosa [5]; 4 h after inoculation): <100 KBE/ml
Ergebnis der Reisolierung (in KBE/ml) (P.aeruginosa [5]; 6 h after inoculation): <100 KBE/ml
Ergebnis der Reisolierung (in KBE/ml) (P.aeruginosa [5]; 8 h after inoculation): <100 KBE/ml
Ergebnis der Reisolierung (in KBE/ml) (P.aeruginosa [5]; 24 h after inoculation): <100 KBE/ml
Ergebnis der Reisolierung (in KBE/ml) (P.aeruginosa [5]; 32 h after inoculation): <100 KBE/ml
Ergebnis der Reisolierung (in KBE/ml) (P.aeruginosa [5]; 48 h after inoculation): <100 KBE/ml
Ergebnis der Reisolierung (in KBE/ml) (P.aeruginosa [5]; 72 h after inoculation): <100 KBE/ml
Ergebnis der Reisolierung qualitiativ (+/-) nach Anreicherung (E.coli [6]; 2 h after inoculation): -
Ergebnis der Reisolierung qualitiativ (+/-) nach Anreicherung (E.coli [6]; 4 h after inoculation): -
Ergebnis der Reisolierung qualitiativ (+/-) nach Anreicherung (E.coli [6]; 6 h after inoculation): -
Ergebnis der Reisolierung qualitiativ (+/-) nach Anreicherung (E.coli [6]; 8 h after inoculation): -
Ergebnis der Reisolierung qualitiativ (+/-) nach Anreicherung (E.coli [6]; 24 h after inoculation): -
Ergebnis der Reisolierung qualitiativ (+/-) nach Anreicherung (E.coli [6]; 32 h after inoculation): -
Ergebnis der Reisolierung qualitiativ (+/-) nach Anreicherung (E.coli [6]; 48 h after inoculation): -
Ergebnis der Reisolierung qualitiativ (+/-) nach Anreicherung (E.coli [6]; 72 h after inoculation): -
Ergebnis der Reisolierung qualitiativ (+/-) nach Anreicherung (S.aureus [7]; 2 h after inoculation): -
Ergebnis der Reisolierung qualitiativ (+/-) nach Anreicherung (S.aureus [7]; 4 h after inoculation): -
Ergebnis der Reisolierung qualitiativ (+/-) nach Anreicherung (S.aureus [7]; 6 h after inoculation): -
Ergebnis der Reisolierung qualitiativ (+/-) nach Anreicherung (S.aureus [7]; 8 h after inoculation): -
Ergebnis der Reisolierung qualitiativ (+/-) nach Anreicherung (S.aureus [7]; 24 h after inoculation): -
Ergebnis der Reisolierung qualitiativ (+/-) nach Anreicherung (S.aureus [7]; 32 h after inoculation): -
Ergebnis der Reisolierung qualitiativ (+/-) nach Anreicherung (S.aureus [7]; 48 h after inoculation): -
Ergebnis der Reisolierung qualitiativ (+/-) nach Anreicherung (S.aureus [7]; 72 h after inoculation): -
Ergebnis der Reisolierung qualitiativ (+/-) nach Anreicherung (S.epidermidis; 2 h after inoculation): - -
Ergebnis der Reisolierung qualitiativ (+/-) nach Anreicherung (S.epidermidis; 4 h after inoculation): -
Ergebnis der Reisolierung qualitiativ (+/-) nach Anreicherung (S.epidermidis; 6 h after inoculation): -
Ergebnis der Reisolierung qualitiativ (+/-) nach Anreicherung (S.epidermidis; 8 h after inoculation): -
Ergebnis der Reisolierung qualitiativ (+/-) nach Anreicherung (S.epidermidis; 24 h after inoculation): -
Ergebnis der Reisolierung qualitiativ (+/-) nach Anreicherung (S.epidermidis; 32 h after inoculation): -
Ergebnis der Reisolierung qualitiativ (+/-) nach Anreicherung (S.epidermidis; 48 h after inoculation): -
Ergebnis der Reisolierung qualitiativ (+/-) nach Anreicherung (S.epidermidis; 72 h after inoculation): -
Ergebnis der Reisolierung qualitiativ (+/-) nach Anreicherung (Sc. pneumoniae [8]; 2 h after inoculation): -
Ergebnis der Reisolierung qualitiativ (+/-) nach Anreicherung (Sc. pneumoniae [8]; 4 h after inoculation): -
Ergebnis der Reisolierung qualitiativ (+/-) nach Anreicherung (Sc. pneumoniae [8]; 6 h after inoculation): -
Ergebnis der Reisolierung qualitiativ (+/-) nach Anreicherung (Sc. pneumoniae [8]; 8 h after inoculation): -
Ergebnis der Reisolierung qualitiativ (+/-) nach Anreicherung (Sc. pneumoniae [8]; 24 h after inoculation): -
Ergebnis der Reisolierung qualitiativ (+/-) nach Anreicherung (Sc. pneumoniae [8]; 32 h after inoculation): -
Ergebnis der Reisolierung qualitiativ (+/-) nach Anreicherung (Sc. pneumoniae [8]; 48 h after inoculation): -
Ergebnis der Reisolierung qualitiativ (+/-) nach Anreicherung (Sc. pneumoniae [8]; 72 h after inoculation): -
Ergebnis der Reisolierung qualitiativ (+/-) nach Anreicherung (H.influenzae [9]; 2 h after inoculation): -
Ergebnis der Reisolierung qualitiativ (+/-) nach Anreicherung (H.influenzae [9]; 4 h after inoculation): -
Ergebnis der Reisolierung qualitiativ (+/-) nach Anreicherung (H.influenzae [9]; 6 h after inoculation): -
Ergebnis der Reisolierung qualitiativ (+/-) nach Anreicherung (H.influenzae [9]; 8 h after inoculation): -
Ergebnis der Reisolierung qualitiativ (+/-) nach Anreicherung (H.influenzae [9]; 24 h after inoculation): -
Ergebnis der Reisolierung qualitiativ (+/-) nach Anreicherung (H.influenzae [9]; 32 h after inoculation): -
Ergebnis der Reisolierung qualitiativ (+/-) nach Anreicherung (H.influenzae [9]; 48 h after inoculation): -
Ergebnis der Reisolierung qualitiativ (+/-) nach Anreicherung (H.influenzae [9]; 72 h after inoculation): -
Ergebnis der Reisolierung qualitiativ (+/-) nach Anreicherung (P.aeruginosa [10]; 2 h after inoculation): - -
Ergebnis der Reisolierung qualitiativ (+/-) nach Anreicherung (P.aeruginosa [10]; 4 h after inoculation): -
Ergebnis der Reisolierung qualitiativ (+/-) nach Anreicherung (P.aeruginosa [10]; 6 h after inoculation): -
Ergebnis der Reisolierung qualitiativ (+/-) nach Anreicherung (P.aeruginosa [10]; 8 h after inoculation): -
Ergebnis der Reisolierung qualitiativ (+/-) nach Anreicherung (P.aeruginosa [10]; 24 h after inoculation): -
Ergebnis der Reisolierung qualitiativ (+/-) nach Anreicherung (P.aeruginosa [10]; 32 h after inoculation): -
Ergebnis der Reisolierung qualitiativ (+/-) nach Anreicherung (P.aeruginosa [10]; 48 h after inoculation): -
Ergebnis der Reisolierung qualitiativ (+/-) nach Anreicherung (P.aeruginosa [10]; 72 h after inoculation): -
